Reference: patent US12214015B2, “Use of c-type natriuretic peptide variants to treat osteoarthritis” (priority 2015, dated 2025)
Bridges are numbered along the chain shown (N, C = ends). Where no end group is shown, it is not given here.

Tests used:
[1] = Body weight gain, late stage rat osteoarthritis study (Example 3); type: in vivo
Excerpt: A model of late stage osteoarthritis was used to evaluate the efficacy of Pro-Gly-CNP-37 in pre-developed osteoarthritis (i.e., primary osteoarthritis). As described above in Examples 1 and 2, osteoarthritis was induced in the rear legs of rats by severing the meniscus. However, in contrast to Examples 1 and 2, the lesion pathology was allowed to progress for three weeks before IA or SC treatment with Pro-Gly-CNP-37 thereby simulating pre-existing OA (i.e., primary osteoarthritis). The overall study design is outlined in Table 9. In particular, male Lewis rats underwent a unilateral medial meniscal tear surgery on Study Day 0; administration of control vehicle or Pro-Gly-CNP-37 began on Study Day 21; and animals were euthanized at scheduled time points following the last dose on Study Day 22 (Groups 1-4) or Study Day 40 (Groups 5-11). The primary endpoints evaluated included histopathological examination of chondrocyte death/cartilage degeneration in the knee.

[2] = rat, in vivo
Description: (§1) As summarized in Table 6, groups of rats were treated with vehicle, Pro-Gly-CNP-37, or Gly-CNP-37. The dose route was intraarticular (IA) or subcutaneous (SC). The dose scheduling was either intraarticular administration three times per week (M, W, F) for 3 weeks (TIW×3W) or subcutaneous administration once daily for approximately 3 weeks (QD×3W). […] IA injections were given as a fixed dose whereas SC injections were given at a given dose per weight based on the most recently recorded body weight. For all rats, body weights were measured predose. For a 300-gram rat, the weekly IA dose regimen for the low, middle, and high levels was approximately equivalent to 15, 50, and 150 μg/kg/day, respectively.
(§2) The pharmacokinetic (PK) and pharmacodynamic (PD) properties of the CNP variants were evaluated. For the PK/PD analysis, timed blood collections were performed on 3 rats/group/time point as follows: 15, 30, 60, and 120 minutes post dosing for the IA groups and 5, 15, 30, 60, and 120 minutes post dosing for the SC groups. After blood collection, synovial lavage fluid (SLF, ˜50 μL/knee) was collected from each rat's left (normal) and right (operated) knee.
(§3) Individual plasma samples were analyzed for Pro-Gly-SNP-37 levels and mean concentration vs. time profiles were analyzed using a non-compartmental model for extravascular administration in Phoenix WinNonlin software.

in vivo = conditions: rat
Description: as §1, §2, §3

NPR-B = biological target: T1, NPR-B (Homo sapiens, UniProt P20594); test: NPR-B signaling studies; type: biochemical
T1 sequence (P20594 23-1047): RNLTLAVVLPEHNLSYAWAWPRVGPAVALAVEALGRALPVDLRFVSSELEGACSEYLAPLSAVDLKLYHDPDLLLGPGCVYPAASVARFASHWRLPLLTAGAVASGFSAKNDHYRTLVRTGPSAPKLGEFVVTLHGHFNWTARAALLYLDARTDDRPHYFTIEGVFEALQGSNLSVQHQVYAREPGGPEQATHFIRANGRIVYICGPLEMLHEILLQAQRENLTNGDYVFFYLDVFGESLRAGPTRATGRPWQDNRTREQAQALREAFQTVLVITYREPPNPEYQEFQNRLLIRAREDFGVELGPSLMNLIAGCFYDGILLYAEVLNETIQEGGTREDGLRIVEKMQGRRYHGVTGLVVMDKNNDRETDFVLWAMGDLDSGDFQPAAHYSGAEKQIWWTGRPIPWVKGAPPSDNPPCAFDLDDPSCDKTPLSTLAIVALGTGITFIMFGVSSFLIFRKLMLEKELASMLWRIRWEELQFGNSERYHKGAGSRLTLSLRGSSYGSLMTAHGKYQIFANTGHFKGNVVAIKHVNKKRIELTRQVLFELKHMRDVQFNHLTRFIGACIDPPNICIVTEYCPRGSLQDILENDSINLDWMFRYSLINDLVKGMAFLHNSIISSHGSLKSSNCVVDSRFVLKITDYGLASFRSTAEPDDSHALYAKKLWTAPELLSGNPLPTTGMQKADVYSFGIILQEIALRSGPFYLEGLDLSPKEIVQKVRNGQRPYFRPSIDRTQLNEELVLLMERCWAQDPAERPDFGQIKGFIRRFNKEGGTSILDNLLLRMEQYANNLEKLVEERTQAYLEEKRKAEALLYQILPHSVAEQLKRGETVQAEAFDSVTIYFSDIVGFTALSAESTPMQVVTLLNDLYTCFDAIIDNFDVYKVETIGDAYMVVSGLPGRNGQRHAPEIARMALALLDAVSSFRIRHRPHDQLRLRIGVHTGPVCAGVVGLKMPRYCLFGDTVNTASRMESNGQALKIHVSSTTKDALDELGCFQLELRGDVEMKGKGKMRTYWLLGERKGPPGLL
Excerpt: Natural substrates of NEP are small and natriuretic peptides (about 2.2 to about 3.2 kDa) are the largest of the natural substrates. According to X-ray crystallographic analyses, the NEP active-site is buried deep inside a central cavity, effectively restricting the size of substrate molecules to no more than about 3 kDa (Oefner et al., J. Mol. Biol., 296: 341-349 (2000)).
The present disclosure encompasses CNP variants designed for improved NPR-B selectivity based on a homology-based structural model of the NPR-B/CNP complex. Combining the experimental and computational structure data of natriuretic peptides bound to the various receptors with the published functional data, CNP variants were generated that continue to bind to NPR-B, but can potentially have reduced affinity to the NPR-C clearance receptor. […] Accordingly, CNP variants were generated to replace the corresponding Gly8 residue with a larger residue (Ser, Val, Thr, or Asn) to disrupt the CNP binding to NPR-C without affecting its binding to NPR-B. Further, one or more mutations were introduced at the C-terminal end of CNP, encompassing Gly15 to Gly21, which is predicted to interact with receptor-specific residues, based on the detailed structural analyses of the receptor/peptide complexes. […]

CC[C@H](C)[C@@H]1NC(=O)[C@H](CCCNC(=N)N)NC(=O)[C@H](CC(=O)O)NC(=O)[C@H](CC(C)C)NC(=O)[C@H](CCCCN)NC(=O)[C@H](CC(C)C)NC(=O)CNC(=O)[C@H](Cc2ccccc2)NC(=O)[C@@H](NC(=O)CNC(=O)[C@H](CCCCN)NC(=O)[C@H](CO)NC(=O)[C@H](CC(C)C)NC(=O)CNC(=O)[C@H](CCCCN)NC(=O)[C@H](CCCCN)NC(=O)[C@H](CC(N)=O)NC(=O)[C@H](C)NC(=O)CNC(=O)[C@H](CCCCN)NC(=O)[C@H](Cc2ccc(O)cc2)NC(=O)[C@H](CCCCN)NC(=O)[C@H](CCCNC(=N)N)NC(=O)[C@H](C)NC(=O)[C@H](CC(N)=O)NC(=O)[C@@H]2CCCN2C(=O)[C@H](Cc2c[nH]cn2)NC(=O)[C@H](CCC(=O)O)NC(=O)[C@H](CCC(N)=O)NC(=O)CNC(=O)[C@@H]2CCCN2)CSSC[C@@H](C(=O)O)NC(=O)CNC(=O)[C@H](CC(C)C)NC(=O)CNC(=O)[C@H](CO)NC(=O)[C@H](CCSC)NC(=O)[C@H](CO)NC(=O)CNC1=O [Pro-Gly-CNP-37]
body weight gain ([1]; 105 μg IA vs IA vehicle): significantly reduced
body weight gain ([1]; 150 μg/kg SC vs SC vehicle): significantly reduced
body weight change (FIG. 27) ([1]; treated animals, IA and SC): reduced body weight change
exposure vs dose [2]: generally dose-proportional
appearance in systemic circulation ([2]; sc): appeared rapidly in systemic circulation
CL ([2]; sc, 150 ug/kg): 121 mL/min
AUC(0-t) (in vivo; 10.5 ug): 28.6 ng·h/mL
Cmax (in vivo; 10.5 ug): 33.8 ng/mL
Tmax (in vivo; 10.5 ug): 15 min
clearance (in vivo; 10.5 ug): 5.77 mL/min
half-life (in vivo; 10.5 ug): 27 min
AUC(0-t) (in vivo; 35.5 ug): 99 ng·h/mL
Cmax (in vivo; 35.5 ug): 110 ng/mL
Tmax (in vivo; 35.5 ug): 15 min
clearance (in vivo; 35.5 ug): 5.36 mL/min
half-life (in vivo; 35.5 ug): 34.9 min
AUC(0-t) (in vivo; 105 ug): 147 ng·h/mL
Cmax (in vivo; 105 ug): 357 ng/mL
Tmax (in vivo; 105 ug): 15 min
clearance (in vivo; 105 ug): 9.19 mL/min
half-life (in vivo; 105 ug): 38.1 min
AUC(0-t) (in vivo; sc, 150 ug/kg): 16.3 ng·h/mL
Cmax (in vivo; sc, 150 ug/kg): 28.4 ng/mL
Tmax (in vivo; sc, 150 ug/kg): 15 min
half-life (in vivo; sc, 150 ug/kg): 23.8 min

CFGLKLDRIGSMSGLGC (disulfide 1-17 (inferred)) [CNP-17]
binding and activation of NPR-B compared with wtCNP-22 (NPR-B): can still bind and activate NPR-B similarly

DLRVDTKSRAAWARLLQEHPNARKYKGANKKGLSKGCFGLKLDRIGSMSGLGC (ends and bridges not checked; cysteine pairing not given here) [CNP-53]
binding and activation of NPR-B compared with wtCNP-22 (NPR-B): can still bind and activate NPR-B similarly
